Reference: ChEMBL document CHEMBL1201862, “PubChem BioAssay data set” (2004)
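Results reflect a 48-hour exposure of cells in 96-well plates to compound at five concentrations. The concentration for 50% growth inhibition is given as GI50.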 Active and inactive are the calls of the source. Rule as the data show it: active = GI50 up to about 1.1 µM and inactive = higher.

Legend:
Test in all cases: NCI anticancer screen, dose series, 48 h
[1] = test system: 786-0
[2] = test system: A498
[3] = test system: CCRF-CEM
[4] = test system: COLO 205
[5] = test system: DLD-1
[6] = test system: DMS-114
[7] = test system: HOP-62
[8] = test system: IGROV-1
[9] = test system: KM-20L2
[10] = test system: LOX IMVI
[11] = test system: LXFL 529
[12] = test system: M19-MEL
[13] = test system: Malme-3M
[14] = test system: NCI-H226
[15] = test system: NCI-H460
[16] = test system: NCI-H522
[17] = test system: OVCAR-3
[18] = test system: OVCAR-8
[19] = test system: SF-268
[20] = test system: SF-295
[21] = test system: SF-539
[22] = test system: SK-MEL-28
[23] = test system: SK-OV-3
[24] = test system: SN12C
[25] = test system: SNB-78
[26] = test system: SW-620
[27] = test system: TK-10
[28] = test system: U-251
[29] = test system: UACC-257
[30] = test system: UACC-62
[31] = test system: A549
[32] = test system: ACHN
[33] = test system: BT-549
[34] = test system: CAKI-1
[35] = test system: DU-145
[36] = test system: EKVX
[37] = test system: HCC 2998
[38] = test system: HCT-116
[39] = test system: HCT-15
[40] = test system: HL-60
[41] = test system: HOP-92
[42] = test system: HT-29
[43] = test system: Hs-578T
[44] = test system: K562
[45] = test system: KM12
[46] = test system: M14
[47] = test system: MCF7
[48] = test system: MDA-MB-231
[49] = test system: MDA-MB-435
[50] = test system: MDA-N
[51] = test system: MOLT-4
[52] = test system: NCI-H23
[53] = test system: NCI/ADR-RES
[54] = test system: OVCAR-4
[55] = test system: OVCAR-5
[56] = test system: PC-3
[57] = test system: RPMI-8226
[58] = test system: RXF 393
[59] = test system: SK-MEL-2
[60] = test system: SK-MEL-5
[61] = test system: SNB-19
[62] = test system: SNB-75
[63] = test system: SR
[64] = test system: T47D
[65] = test system: UO-31

With `CCCCCCCCCCCCCB(O)O` the GI50 [1] was 95.5 µM (inactive), the GI50 [2] was 50.2 µM (inactive) and the GI50 [3] was 57.8 µM (inactive). For the same molecule, the GI50 [4] was > 100 µM (inactive), the GI50 [5] was 65.2 µM (inactive) and the GI50 [6] was 65.5 µM (inactive). For the same molecule, the GI50 [7] was > 100 µM (inactive), the GI50 [8] was > 100 µM (inactive) and the GI50 [9] was 60.7 µM (inactive). For the same molecule, the GI50 [10] was > 100 µM (inactive), the GI50 [11] was 81.8 µM (inactive) and the GI50 [12] was > 100 µM (inactive). The GI50 [13] was > 100 µM (inactive), the GI50 [14] was 96.2 µM (inactive) and the GI50 [15] was 85.5 µM (inactive). For the same molecule, the GI50 [16] was 51.3 µM (inactive), the GI50 [17] was 50.7 µM (inactive) and the GI50 [18] was > 100 µM (inactive). For the same molecule, the GI50 [19] was 69.2 µM (inactive), the GI50 [20] was > 100 µM (inactive) and the GI50 [21] was > 100 µM (inactive). The GI50 [22] was > 100 µM (inactive), the GI50 [23] was > 100 µM (inactive) and the GI50 [24] was 66.2 µM (inactive). For the same molecule, the GI50 [25] was 58.1 µM (inactive), the GI50 [26] was 61.5 µM (inactive) and the GI50 [27] was > 100 µM (inactive). For the same molecule, the GI50 [28] was 60.4 µM (inactive), the GI50 [29] was > 100 µM (inactive) and the GI50 [30] was > 100 µM (inactive).

`O=P(O)(CCP(=O)(O)c1ccccc1)c1ccccc1` was tested, and the GI50 [1] was > 100 µM (inactive), the GI50 [2] was > 100 µM (inactive) and the GI50 [31] was > 100 µM (inactive). For the same molecule, the GI50 [32] was > 100 µM (inactive), the GI50 [33] was > 100 µM (inactive) and the GI50 [34] was > 100 µM (inactive). For the same molecule, the GI50 [3] was > 100 µM (inactive), the GI50 [4] was > 100 µM (inactive) and the GI50 [35] was > 100 µM (inactive). For the same molecule, the GI50 [36] was > 100 µM (inactive), the GI50 [37] was > 100 µM (inactive) and the GI50 [38] was > 100 µM (inactive). The GI50 [39] was over 100 µM, the GI50 [40] was > 100 µM (inactive) and the GI50 [7] was > 100 µM (inactive). The GI50 [41] was > 100 µM (inactive), the GI50 [42] was > 100 µM (inactive) and the GI50 [43] was > 100 µM (inactive). For the same molecule, the GI50 [8] was > 100 µM (inactive), the GI50 [44] was > 100 µM (inactive) and the GI50 [45] was > 100 µM (inactive). For the same molecule, the GI50 [10] was > 100 µM (inactive), the GI50 [46] was > 100 µM (inactive) and the GI50 [47] was > 100 µM (inactive). The GI50 [48] was > 100 µM (inactive), the GI50 [49] was > 100 µM (inactive) and the GI50 [50] was > 100 µM (inactive). The GI50 [51] was > 100 µM (inactive), the GI50 [13] was > 100 µM (inactive) and the GI50 [14] was > 100 µM (inactive). The GI50 [52] was > 100 µM (inactive), the GI50 [15] was > 100 µM (inactive) and the GI50 [16] was > 100 µM (inactive). The GI50 [53] was > 100 µM (inactive), the GI50 [17] was > 100 µM (inactive) and the GI50 [54] was > 100 µM (inactive). The GI50 [55] was > 100 µM (inactive), the GI50 [18] was > 100 µM (inactive) and the GI50 [56] was > 100 µM (inactive). For the same molecule, the GI50 [57] was > 100 µM (inactive), the GI50 [58] was > 100 µM (inactive) and the GI50 [19] was > 100 µM (inactive). The GI50 [20] was > 100 µM (inactive), the GI50 [21] was > 100 µM (inactive) and the GI50 [22] was > 100 µM (inactive). For the same molecule, the GI50 [59] was > 100 µM (inactive), the GI50 [60] was > 100 µM (inactive) and the GI50 [23] was > 100 µM (inactive). The GI50 [24] was > 100 µM (inactive), the GI50 [61] was > 100 µM (inactive) and the GI50 [62] was > 100 µM (inactive). The GI50 [63] was > 100 µM (inactive), the GI50 [26] was > 100 µM (inactive) and the GI50 [64] was > 100 µM (inactive). For the same molecule, the GI50 [27] was > 100 µM (inactive), the GI50 [28] was > 100 µM (inactive) and the GI50 [29] was > 100 µM (inactive). The GI50 [30] was > 100 µM (inactive) and the GI50 [65] was > 100 µM (inactive).
